Values quoted from earlier work in US20070072940A1, “Use of quinol derivatives thereof for cosmetic, dietary supplement or pharmaceutical compositions and compositions thereby obtained” (priority 2005, published 2007).

Experiments:
B. subtilis = conditions: in vitro
S. aureus = conditions: in vitro
fibrin = conditions: through an action on the polymerization of fibrin
[1] = tested on: skin trauma such as bruising or blemishes; conditions: applied topically
[2] = tested on: nutritional muscular dystrophy
[3] = results combined with previous research
[4] = tested on: low density lipoprotein lipids
[5] = tested on: lipid peroxidation in liposomes

Compound: Cc1c(C)c2c(c(C)c1OP(=O)(O)O)CC[C@@](C)(CCC[C@H](C)CCC[C@H](C)CCCC(C)C)O2 [DL alpha tocopherol phosphate]
- antimicrobial action on B. subtilis (B. subtilis): antimicrobial action
- antimicrobial action on S. aureus (S. aureus): antimicrobial action
- anticoagulant action (fibrin): anticoagulant action

Compound: C/C(=C\Cc1c(C)c(O)c2ccccc2c1O)CCC[C@H](C)CCC[C@H](C)CCCC(C)C [Phylloquinol]
- free radical scavenging ability, comparison (free radical): greater than that of alpha tocopherol quinol, plastoquinol, and alpha tocopherol

Compound: CC(C)=CCC/C(C)=C/CC/C(C)=C/CC/C(C)=C/CC/C(C)=C/CC/C(C)=C/CC/C(C)=C/CC/C(C)=C/CC/C(C)=C/Cc1cc(O)c(C)c(C)c1O [Plastoquinol]
- free radical scavenging ability, comparison (free radical): greater than that of ubiquinol and alpha tocopherol

Compound: CC1=C(C/C=C(\C)CCC[C@H](C)CCC[C@H](C)CCCC(C)C)C(=O)c2ccccc2C1=O [Vitamin K, Phytonadione]
- reduction of severity of skin trauma [1]: ability to reduce the severity of skin trauma

Compound: Cc1c(C)c(O)c(CC[C@](C)(O)CCC[C@H](C)CCC[C@H](C)CCCC(C)C)c(C)c1O [alpha tocopherol quinol]
- prevention and treatment of nutritional muscular dystrophy ([2]; rabbit, injectable and oral): could prevent and treat nutritional muscular dystrophy
- prevention of creatinuria and loss of weight caused by vitamin E deficiency ([2]; vitamin E deficiency): could prevent creatinuria and loss of weight
- toxicity [3]: non-toxic
- free radical scavenging ability, comparison (free radical): greater than that of ubiquinol and alpha tocopherol
- interception of aqueous peroxyl radicals [4]: directly intercepted aqueous peroxyl radicals
- reduction of lipoprotein ubiquinone to ubiquinol ([4]; associated with LDL): instantaneously reduce the lipoprotein ubiquinone to ubiquinol
- quenching of alpha tocopheroxyl radicals ([4]; in oxidizing LDL): rapidly quenched alpha tocopheroxyl radicals
- inhibition of radical initiated oxidation of low density lipoprotein lipids ([4]; in vitro): efficient multifunctional inhibitor
- inhibition of lipid peroxidation [5]: shown to inhibit lipid peroxidation
- inhibition of lipid peroxidation in liposomes, comparison ([5]; liposomes, compared with alpha tocopherol quinone): superior inhibition of lipid peroxidation in liposomes

Compound: CC1=C(C)C(=O)C(CC[C@](C)(O)CCC[C@H](C)CCC[C@H](C)CCCC(C)C)=C(C)C1=O [alpha tocopherol quinone]
- toxicity [3]: non-toxic
- inhibition of lipid peroxidation [5]: shown to inhibit lipid peroxidation

Compound: Menaquinol
- free radical scavenging ability, comparison (free radical): greater than that of alpha tocopherol quinol, plastoquinol, and alpha tocopherol
